pIC50: −log10 of the molar value.
Tests used:
SK-MEL-28 = assay: cytotoxic activity in cell culture on melanoma cell line SK-MEL-28; type: cell-based; conditions: SK-MEL-28 melanoma cell line obtained from human tumors
Description: (§1) The compound of tris(hydroxyquinolinolato)gallium(III) was analyzed with respect to its cytotoxic activity in the cell culture on the melanoma cell lines obtained from human tumors.

SK-MEL-5 = assay: cytotoxic activity in cell culture on melanoma cell line SK-MEL-5; type: cell-based; conditions: SK-MEL-5 melanoma cell line obtained from human tumors
Description: as §1

c1cnc2c([O][Ga]([O]c3cccc4cccnc34)[O]c3cccc4cccnc34)cccc2c1 [tris(hydroxyquinolinolato)gallium(III)]
pIC50 (SK-MEL-28): 4.46
pIC50 (SK-MEL-5): 6.12

Reference: US7919486B2, “Use of gallium(III) complexes for the treatment of melanomas” (Niiki Pharma Inc., priority 2007, dated 2011)
